Legend:
Homo sapiens [1] = organism: Homo sapiens; experiment: Selectivity ratio of Ki for human carbonic anhydrase 2 to Ki for human carbonic anhydrase 9
Carbonic anhydrase 9 = Carbonic anhydrase 9 (Homo sapiens, UniProt Q16790); experiment: Inhibition of human carbonic anhydrase 9 preincubated for 15 mins by CO2 hydration stopped-flow assay
Homo sapiens [2] = organism: Homo sapiens; experiment: Selectivity ratio of Ki for human carbonic anhydrase 1 to Ki for human carbonic anhydrase 9
Carbonic anhydrase 2 = Carbonic anhydrase 2 (Homo sapiens, UniProt P00918); experiment: Inhibition of human carbonic anhydrase 2 preincubated for 15 mins by CO2 hydration stopped-flow assay

| SMILES | Ratio Ki (Homo sapiens [1]) | Ki (Carbonic anhydrase 9) [nM] | Ratio Ki (Homo sapiens [2]) | Ki (Carbonic anhydrase 2) [nM] |
| --- | --- | --- | --- | --- |
| C[C@@H]1O[C@@H](NS(N)(=O)=O)[C@@H](O)[C@H](O)[C@H]1O | 7 | 900 |  |  |
| CC(=O)OC[C@H]1O[C@H](NS(N)(=O)=O)C=C[C@@H]1OC(C)=O |  | 9 |  |  |
| CC(=O)OC[C@H]1O[C@@H](NS(N)(=O)=O)[C@H](OC(C)=O)[C@@H](OC(C)=O)[C@H]1OC(C)=O | < 17 | 5 | 480 |  |
| CC(=O)OC[C@H]1O[C@@H](NS(N)(=O)=O)[C@H](OC(C)=O)[C@@H](OC(C)=O)[C@@H]1OC(C)=O | < 17 | 5 | 480 |  |
| CC(=O)OC[C@H]1O[C@@H](NS(N)(=O)=O)[C@@H](OC(C)=O)[C@@H](OC(C)=O)[C@@H]1OC(C)=O | < 17 |  | 480 |  |
| NS(=O)(=O)OC[C@H]1O[C@H](OC[C@H]2[C@H](O)[C@@H](O)[C@H](O)O[C@@H]2CO)[C@H](O)[C@@H](O)[C@@H]1O |  |  |  | 11.3 |

From ChEMBL document CHEMBL2331460, “Glycosidic carbonic anhydrase IX inhibitors: a sweet approach against cancer” (Bioorg Med Chem, 2013)
